The nature of series [1]: Usefulness as absorption promoter. The conditions noted are these: statement in words, no data.
The nature of series [2]: Toxicity studies of phenylalanine derivatives, oral, in female CD-1(ICR) mice. The conditions noted are these: mouse, in vivo, suspended in 0.5% CMC. The text has this: Toxicity Studies of Phenylalanine Derivatives with Oral IN Potentiating Activity in Female CD-1(ICR) Mice are as follows:
Phenylalanine derivatives were suspended in 0.5% CMC.

A short description of series [3]: Degree of decrease in blood glucose after intraduodenal administration with insulin in rats. It is filed as in vivo, rat (Male SD rats). The conditions noted are these: male SD rats, 1.5 mg/10 body weight with insulin 1.25 U/10 g, mean. As for the experimental part: Each (Administration: 1.5 mg/10 body weight) of the absorption promoters, phenylalanine derivatives as previously listed in the table was dissolved or suspended in 0.01M phosphate buffer (pH 7.5) and the solution or suspension was mixed with aqueous insulin (Administation: 1.25 U/10 g body weight) solution. Male SD rats, 6 weeks old, were intraduodenally administrated with predetermined amounts of the mixtures after being incised abdominally. The incised wounds were sutured quickly. A predetermined duration later, the percent decreases in blood glucose were determined. In the experiment, four rats a group were used, and the experiment was repeated 2 to 5 times. The mean values of the thus obtained data were described in the table.

The nature of series [4]: Oral insulin absorption in female ICR-CD-1 mice: percent decrease in blood glucose and degree of elevation of blood insulin. The conditions noted are these: vs control group. It is filed as in vivo, mouse (Female ICR-CD-1 mice). As for the experimental part: The absorption promoter samples listed in Table 2 were dissolved or suspended in 0.5% CMC-0.05M tris-HCl buffers (pH: 7.8) and the solutions or suspensions were mixed with aqueous insulin solution. Female ICR-CD-1 mice 5 to 7 weeks old were orally administered predetermined amounts of the mixtures. A predetermined duration later, the percent decrease in blood glucose and the degree of elevation of blood insulin as compared with the control group were measured. The symbol "Z" in the structural formulas in the table represents a benzyloxycarbonyl group. The upper figures in the columns "effectiveness" represent the percent decrease in blood glucose and the lower parenthesized figures indicate the degree of elevation in blood insulin.

The mark [5] stands for this setting: sample 6.0 mg/10 g with insulin 2.5 U/10 g, 30 minutes.
The mark [6] stands for this setting: sample 6.0 mg/10 g with insulin 2.5 U/10 g, 60 minutes.

SMILES strings stand for the structures. Residues, ends and D or L forms follow the SMILES beside them. *: point of attachment. Cbz = O=C(OCc1ccccc1)*

As usually defined, the LD50 is the dose expected to kill half of the subjects tested.

With `N[C@@H](Cc1ccccc1)C(=O)O` [Phenylalanine], the “usefulness as absorption promoter” value in series [1] was “not useful as absorption promoters”.

As for `O=C(N[C@H](Cc1ccccc1)C(=O)O)OCc1ccccc1` [Sample S-18, N-benzyloxycarbonyl-D-phenylalanine], the LD50 in series [2] is over 4000 mg/kg.

Consider `COc1ccc(COC(=O)N[C@@H](Cc2ccccc2)C(=O)O)cc1` [Sample S-17, N-(4-methoxybenzyloxycarbonyl)-L-phenylalanine], for which, in series [2], the LD50 was found to be 750 mg/kg.

`O=C(N[C@H](Cc1ccccc1)C(=O)O)C(F)=Cc1ccccc1` [Sample S-48, N-(α-fluorocinnamoyl)-D-phenylalanine]: the “Decrease in Blood Glucose” value in series [3] (30 minutes) was 73.7%; in series [3] (60 minutes) it was 72.9%.

Regarding `O=C(C=Cc1cccc2ccccc12)N[C@H](Cc1ccccc1)C(=O)O` [Sample S-46, N-(1-naphthylacryloyl)-D-phenylalanine], the “Decrease in Blood Glucose” value in series [3] (30 minutes) was found to be 41.6%; in series [3] (60 minutes), 28.8%.

Turning to `O=C(N[C@@H](Cc1ccccc1)C(=O)O)C(Cl)=Cc1ccccc1` [Sample S-49, N-(α-Chlorocinnamoyl)-L-phenylalanine 1/2C2 H5 OH], the “Decrease in Blood Glucose” value in series [3] (30 minutes) was found to be 63.2%; in series [3] (60 minutes), 49.1%.

Regarding `CC(=O)N[C@@H](Cc1ccccc1)C(=O)O` [N-acetylphenylalanine], in series [1], the “usefulness as absorption promoter” value was “not useful as absorption promoters”.

With `O=C(C=Cc1ccc2ccccc2c1)N[C@H](Cc1ccccc1)C(=O)O` [Sample S-38, N-(2-Naphthylacryloyl)-D-phenylalanine], the “Decrease in Blood Glucose” value in series [3] (30 minutes) is 27.0%; in series [3] (60 minutes), 24.7%.

For the molecule `O=C(N[C@@H](Cc1ccccc1)C(=O)O)OCc1ccccc1` [Sample S-15, N-benzyloxycarbonyl-L-phenylalanine], in series [2], the LD50 was over 2750 mg/kg.

In the case of `CCc1ccc(C=CC(=O)N[C@H](Cc2ccccc2)C(=O)O)cc1` [Sample S-40, N-(4-ethylcinnamoyl)-D-phenylalanine], the “Decrease in Blood Glucose” value amounted to 33.9% in series [3] (30 minutes) and 28.1% in series [3] (60 minutes).

With `CCc1ccc(C=CC(=O)N[C@@H](Cc2ccccc2)C(=O)O)cc1` [Sample S-39, N-(4-ethylcinnamoyl)-L-phenylalanine], the “Decrease in Blood Glucose” value is on record as 56.0% in series [3] (30 minutes) and 32.5% in series [3] (60 minutes).

As for `O=C(COc1ccc2ccccc2c1)N[C@@H](Cc1ccccc1)C(=O)O` [Sample S-12, N-[(2-naphthoxy)acetyl]-L-phenylalanine], in series [2], the LD50 is over 4000 mg/kg.

As to `O=C(C=Cc1ccc2ccccc2c1)N[C@@H](Cc1ccccc1)C(=O)O` [Sample S-37, N-(2-Naphthylacryloyl)-L-phenylalanine], the “Decrease in Blood Glucose” value in series [3] (30 minutes) was 55.3%; in series [3] (60 minutes), 40.2%.

With `O=C(COc1ccc(Cl)cc1)N[C@@H](Cc1ccccc1)C(=O)O` [Sample S-13, N-[(4-chlorophenoxy)acetyl]-L-phenylalanine], the LD50 in series [2] was over 3500 mg/kg.

With `O=C(C=Cc1ccccc1)N[C@@H](Cc1ccccc1)C(=O)O` [Sample S-3, N-cinnamoyl-L-phenylalanine], the LD50 in series [2] was over 2500 mg/kg.

For `O=C(N[C@@H](Cc1ccccc1)C(=O)N[C@@H](Cc1ccccc1)C(=O)O)OCc1ccccc1` [Sample S-7, N-benzyloxycarbonyl-L-phenylalanyl-L-phenylalanine] (Cbz-Phe-Phe-OH), the LD50 in series [2] was over 3000 mg/kg.

Take `O=C(C=Cc1cccc(Cl)c1)N[C@@H](Cc1ccccc1)C(=O)O` [Sample S-43, N-(3-chlorocinnamoyl)-L-phenylalanine]: the entries for the “Decrease in Blood Glucose” value in series [3] (30 minutes) and in series [3] (60 minutes) were 50.9% and 46.9%, respectively.

`O=C(CCCc1ccccc1)N[C@@H](Cc1ccccc1)C(=O)O` [Sample S-8, N-(4-phenylbutyroyl)-L-phenylalanine]: the entries for the “Decrease in Blood Glucose” value in series [4] (setting [5]) and in series [4] (setting [6]) were 57.1% and 35.6%, respectively.

As to `O=C(COc1cccc2ccccc12)N[C@@H](Cc1ccccc1)C(=O)O` [Sample S-11, N-[(1-naphthoxy)acetyl]-L-phenylalanine], the 50% lethal dose (LD50) in series [2] was over 4000 mg/kg.

For `O=C(NC(Cc1ccc(F)cc1)C(=O)N[C@@H](Cc1ccccc1)C(=O)O)OCc1ccccc1` (mixture of isomers) [Sample S-22, N-benzyloxycarbonyl-4-fluoro-DL-phenylalanyl-L-phenylalanine], in series [4] (sample 3.0 mg/10 g with insulin 2.5 U/10 g, 30 minutes), the “Decrease in Blood Glucose” value came out at 63.1%.

As for `O=C(N[C@H](Cc1ccccc1)C(=O)O)C(Cl)=Cc1ccccc1` [Sample S-50, N-(α-Chlorocinnamoyl)-D-phenylalanine 1/2C2 H5 OH], the “Decrease in Blood Glucose” value in series [3] (30 minutes) was 79.0%; in series [3] (60 minutes), 74.9%.

Turning to `O=C(COc1ccc([N+](=O)[O-])cc1)NC(Cc1ccc([N+](=O)[O-])cc1)C(=O)O` (racemic) [Sample S-2, N-[(4-nitrophenoxy)acetyl]-4-nitro-DL-phenylalanine], in series [4] (setting [5]), the “Decrease in Blood Glucose” value is 23.2%.

Regarding `O=C(C=Cc1cccc(Cl)c1)N[C@H](Cc1ccccc1)C(=O)O` [Sample S-44, N-(3-chlorocinnamoyl)-D-phenylalanine], the “Decrease in Blood Glucose” value in series [3] (30 minutes) was 55.0%; in series [3] (60 minutes), 49.3%.

Turning to `Cc1ccc(C=CC(=O)N[C@H](Cc2ccccc2)C(=O)O)cc1` [Sample S-47, N-(4-methylcinnamoyl)-D-phenylalanine], the “Decrease in Blood Glucose” value in series [3] (30 minutes) worked out at 52.3%; in series [3] (60 minutes), 41.0%.

In the case of `O=C(N[C@@H](Cc1ccccc1)C(=O)N[C@@H](Cc1ccc(O)cc1)C(=O)O)OCc1ccccc1` [Sample S-10, N-benzyloxycarbonyl-L-phenylalanyl-L-tyrosine] (Cbz-Phe-Tyr-OH), the 50% lethal dose (LD50) in series [2] is over 3000 mg/kg.

On to `O=C(C=Cc1cccc2ccccc12)N[C@@H](Cc1ccccc1)C(=O)O` [Sample S-45, N-(1-naphthylacryloyl)-L-phenylalanine], for which the “Decrease in Blood Glucose” value in series [3] (30 minutes) was 41.2%; in series [3] (60 minutes), 35.4%.

`Cc1cccc(C=CC(=O)N[C@H](Cc2ccccc2)C(=O)O)c1` [Sample S-42, N-(3-methylcinnamoyl)-D-phenylalanine]: the figures for the “Decrease in Blood Glucose” value in series [3] (30 minutes) and in series [3] (60 minutes) were 48.8% and 40.7%, respectively.

With `O=C(COc1ccccc1)N[C@@H](Cc1ccccc1)C(=O)O` [Sample S-5, N-phenoxyacetyl-L-phenylalanine], the LD50 in series [2] was over 4000 mg/kg.

Take `Cc1cccc(C=CC(=O)N[C@@H](Cc2ccccc2)C(=O)O)c1` [Sample S-41, N-(3-methylcinnamoyl)-L-phenylalanine]: the entries for the “Decrease in Blood Glucose” value in series [3] (30 minutes) and in series [3] (60 minutes) were 50.5% and 35.3%, respectively.

Take `O=C(N[C@@H](Cc1ccc(O)cc1)C(=O)O)OCc1ccccc1` [Sample S-16, N-benzyloxycarbonyl-L-tyrosne]: the “Decrease in Blood Glucose” value in series [4] (setting [6]) came to 27.2%.
